Earlier results on two compounds are cited in patent US20050014827A1, “Synergistic medicament containing flavoring agents and having an antagonistic regenerative and/or protagonist decontamination effect” (priority 2000, published 2005).

One data set deals with reverse transcriptase. Conditions: 19% ethanol.
The test system of another data set is HTLV-III/LAV/HIV. Conditions: 50% ethanol; 23° C.; 10 min; with and without additional protein loading.
The next data set deals with HBV. To be noted: 70% isopropyl alcohol; 10 min; room temperature; serum dried onto plastic surface.

As to `CCO` [ethanol], the “detection of viral reverse transcriptase” value in the data set with reverse transcriptase is on record as “can no longer be detected”. Moreover, the “infectiousness of the virus” value with HTLV-III/LAV/HIV is listed as “destroys the infectiousness”.

As for `CC(C)O` [isopropyl alcohol], in the data set with HBV, the “inactivation of 10^6 HBV doses infectious towards chimpanzees” value is given as “inactivated”.
